Test results reported in ChEMBL document CHEMBL1155172, “Distribution of radioactivity in bone and related structures following administration of [14C]dalbavancin to New Zealand white rabbits” (Antimicrob Agents Chemother, 2007).

Columns and labels:
[1] = Drug level in New Zealand white rabbit articular cartilage assessed as [14C]dalbavancin level per gram of tissue at 20 mg/kg, iv after 72 hrs by autoradioluminography; assay type: ADME, organism-based, Oryctolagus cuniculus; design: dose 20 mg/kg, route intravenous; conditions: in vivo
[2] = Drug level in New Zealand white rabbit epiphyseal plate assessed as [14C]dalbavancin level per gram of tissue at 20 mg/kg, iv after 120 hrs by autoradioluminography; assay type: ADME, organism-based, Oryctolagus cuniculus; design: dose 20 mg/kg, route intravenous; conditions: in vivo
[3] = Drug level in New Zealand white rabbit ligament assessed as [14C]dalbavancin level per gram of tissue at 20 mg/kg, iv after 24 hrs by autoradioluminography; assay type: ADME, organism-based, Oryctolagus cuniculus; design: dose 20 mg/kg, route intravenous; conditions: in vivo
[4] = Drug level in New Zealand white rabbit bone marrow assessed as [14C]dalbavancin level per gram of tissue at 20 mg/kg, iv after 168 hrs by autoradioluminography; assay type: ADME, organism-based, Oryctolagus cuniculus; design: dose 20 mg/kg, route intravenous; conditions: in vivo
[5] = Drug level in New Zealand white rabbit epiphyseal plate assessed as [14C]dalbavancin level per gram of tissue at 20 mg/kg, iv after 72 hrs by autoradioluminography; assay type: ADME, organism-based, Oryctolagus cuniculus; design: dose 20 mg/kg, route intravenous; conditions: in vivo
[6] = Drug level in New Zealand white rabbit epiphyseal plate assessed as [14C]dalbavancin level per gram of tissue at 20 mg/kg, iv after 336 hrs by autoradioluminography; assay type: ADME, organism-based, Oryctolagus cuniculus; design: dose 20 mg/kg, route intravenous; conditions: in vivo
[7] = Drug level in New Zealand white rabbit meniscus assessed as [14C]dalbavancin level per gram of tissue at 20 mg/kg, iv after 72 hrs by autoradioluminography; assay type: ADME, organism-based, Oryctolagus cuniculus; design: dose 20 mg/kg, route intravenous; conditions: in vivo
[8] = Drug level in New Zealand white rabbit skeletal muscle assessed as [14C]dalbavancin level per gram of tissue at 20 mg/kg, iv after 120 hrs by autoradioluminography; assay type: ADME, organism-based, Oryctolagus cuniculus; design: dose 20 mg/kg, route intravenous; conditions: in vivo
Oryctolagus cuniculus [9] = assay: Plasma concentration in New Zealand white rabbit assessed as [14C]dalbavancin level per gram of tissue at 20 mg/kg, iv after 336 hrs by liquid scintillation counting method; assay type: ADME, organism-based; design: dose 20 mg/kg, route intravenous; conditions: in vivo
[10] = Drug level in New Zealand white rabbit nucleus pulposus assessed as [14C]dalbavancin level per gram of tissue at 20 mg/kg, iv after 120 hrs by liquid scintillation counting method; assay type: ADME, organism-based, Oryctolagus cuniculus; design: dose 20 mg/kg, route intravenous; conditions: in vivo
[11] = Drug level in New Zealand white rabbit bone marrow assessed as [14C]dalbavancin level per gram of tissue at 20 mg/kg, iv after 336 hrs by autoradioluminography; assay type: ADME, organism-based, Oryctolagus cuniculus; design: dose 20 mg/kg, route intravenous; conditions: in vivo
[12] = Drug level in New Zealand white rabbit bone marrow assessed as [14C]dalbavancin level per gram of tissue at 20 mg/kg, iv after 120 hrs by liquid scintillation counting method; assay type: ADME, organism-based, Oryctolagus cuniculus; design: dose 20 mg/kg, route intravenous; conditions: in vivo
[13] = Drug level in New Zealand white rabbit cerebrospinal fluid assessed as [14C]dalbavancin level per gram of tissue at 20 mg/kg, iv after 12 hrs by liquid scintillation counting method; assay type: ADME, organism-based, Oryctolagus cuniculus; design: dose 20 mg/kg, route intravenous; conditions: in vivo
[14] = Drug level in New Zealand white rabbit nucleus pulposus assessed as [14C]dalbavancin level per gram of tissue at 20 mg/kg, iv after 72 hrs by liquid scintillation counting method; assay type: ADME, organism-based, Oryctolagus cuniculus; design: dose 20 mg/kg, route intravenous; conditions: in vivo
[15] = Drug level in New Zealand white rabbit periostium assessed as [14C]dalbavancin level per gram of tissue at 20 mg/kg, iv after 24 hrs by autoradioluminography; assay type: ADME, organism-based, Oryctolagus cuniculus, Periosteum; design: dose 20 mg/kg, route intravenous; conditions: in vivo
Blood [16] = assay: Drug level in New Zealand white rabbit blood assessed as [14C]dalbavancin level per gram of tissue at 20 mg/kg, iv after 72 hrs by autoradioluminography; assay type: ADME, organism-based, Oryctolagus cuniculus; design: dose 20 mg/kg, route intravenous; conditions: in vivo
[17] = Drug level in New Zealand white rabbit nucleus pulposus assessed as [14C]dalbavancin level per gram of tissue at 20 mg/kg, iv after 12 hrs by liquid scintillation counting method; assay type: ADME, organism-based, Oryctolagus cuniculus; design: dose 20 mg/kg, route intravenous; conditions: in vivo
Blood [18] = assay: Drug level in New Zealand white rabbit blood assessed as [14C]dalbavancin level per gram of tissue at 20 mg/kg, iv after 336 hrs by autoradioluminography; assay type: ADME, organism-based, Oryctolagus cuniculus; design: dose 20 mg/kg, route intravenous; conditions: in vivo
[19] = Drug level in New Zealand white rabbit synovial space assessed as [14C]dalbavancin level per gram of tissue at 20 mg/kg, iv after 120 hrs by autoradioluminography; assay type: ADME, organism-based, Oryctolagus cuniculus; design: dose 20 mg/kg, route intravenous; conditions: in vivo
[20] = Drug level in New Zealand white rabbit ligament assessed as [14C]dalbavancin level per gram of tissue at 20 mg/kg, iv after 168 hrs by autoradioluminography; assay type: ADME, organism-based, Oryctolagus cuniculus; design: dose 20 mg/kg, route intravenous; conditions: in vivo
[21] = Drug level in New Zealand white rabbit cerebrospinal fluid assessed as [14C]dalbavancin level per gram of tissue at 20 mg/kg, iv after 24 hrs by liquid scintillation counting method; assay type: ADME, organism-based, Oryctolagus cuniculus; design: dose 20 mg/kg, route intravenous; conditions: in vivo
[22] = Drug level in New Zealand white rabbit nucleus pulposus assessed as [14C]dalbavancin level per gram of tissue at 20 mg/kg, iv after 336 hrs by liquid scintillation counting method; assay type: ADME, organism-based, Oryctolagus cuniculus; design: dose 20 mg/kg, route intravenous; conditions: in vivo
[23] = Drug level in New Zealand white rabbit periostium assessed as [14C]dalbavancin level per gram of tissue at 20 mg/kg, iv after 168 hrs by autoradioluminography; assay type: ADME, organism-based, Oryctolagus cuniculus, Periosteum; design: dose 20 mg/kg, route intravenous; conditions: in vivo
Blood [24] = assay: Drug level in New Zealand white rabbit blood assessed as [14C]dalbavancin level per gram of tissue at 20 mg/kg, iv after 120 hrs by autoradioluminography; assay type: ADME, organism-based, Oryctolagus cuniculus; design: dose 20 mg/kg, route intravenous; conditions: in vivo
Staphylococcus = assay: Antibacterial activity against Staphylococcus; assay type: functional
[25] = Drug level in New Zealand white rabbit ligament assessed as [14C]dalbavancin level per gram of tissue at 20 mg/kg, iv after 120 hrs by autoradioluminography; assay type: ADME, organism-based, Oryctolagus cuniculus; design: dose 20 mg/kg, route intravenous; conditions: in vivo
[26] = Drug level in New Zealand white rabbit periostium assessed as [14C]dalbavancin level per gram of tissue at 20 mg/kg, iv after 336 hrs by autoradioluminography; assay type: ADME, organism-based, Oryctolagus cuniculus, Periosteum; design: dose 20 mg/kg, route intravenous; conditions: in vivo
[27] = Drug level in New Zealand white rabbit ligament assessed as [14C]dalbavancin level per gram of tissue at 20 mg/kg, iv after 72 hrs by autoradioluminography; assay type: ADME, organism-based, Oryctolagus cuniculus; design: dose 20 mg/kg, route intravenous; conditions: in vivo
[28] = Drug level in New Zealand white rabbit compact bone assessed as [14C]dalbavancin level per gram of tissue at 20 mg/kg, iv after 24 hrs by autoradioluminography; assay type: ADME, organism-based, Oryctolagus cuniculus, Bone element; design: dose 20 mg/kg, route intravenous; conditions: in vivo
[29] = Drug level in human urine assessed as hydroxydalbavancin level; assay type: ADME, tissue-based
[30] = Drug level in New Zealand white rabbit articular cartilage assessed as [14C]dalbavancin level per gram of tissue at 20 mg/kg, iv after 24 hrs by autoradioluminography; assay type: ADME, organism-based, Oryctolagus cuniculus; design: dose 20 mg/kg, route intravenous; conditions: in vivo
[31] = Drug level in New Zealand white rabbit skeletal muscle assessed as [14C]dalbavancin level per gram of tissue at 20 mg/kg, iv after 336 hrs by autoradioluminography; assay type: ADME, organism-based, Oryctolagus cuniculus; design: dose 20 mg/kg, route intravenous; conditions: in vivo
[32] = Drug level in New Zealand white rabbit bone marrow assessed as [14C]dalbavancin level per gram of tissue at 20 mg/kg, iv after 120 hrs by autoradioluminography; assay type: ADME, organism-based, Oryctolagus cuniculus; design: dose 20 mg/kg, route intravenous; conditions: in vivo
Oryctolagus cuniculus [33] = assay: Plasma concentration in New Zealand white rabbit assessed as [14C]dalbavancin level per gram of tissue at 20 mg/kg, iv after 72 hrs by liquid scintillation counting method; assay type: ADME, organism-based; design: dose 20 mg/kg, route intravenous; conditions: in vivo
[34] = Drug level in New Zealand white rabbit compact bone assessed as [14C]dalbavancin level per gram of tissue at 20 mg/kg, iv after 336 hrs by autoradioluminography; assay type: ADME, organism-based, Oryctolagus cuniculus, Bone element; design: dose 20 mg/kg, route intravenous; conditions: in vivo
[35] = Drug level in New Zealand white rabbit epiphyseal plate assessed as [14C]dalbavancin level per gram of tissue at 20 mg/kg, iv after 24 hrs by autoradioluminography; assay type: ADME, organism-based, Oryctolagus cuniculus; design: dose 20 mg/kg, route intravenous; conditions: in vivo
[36] = Drug level in New Zealand white rabbit meniscus assessed as [14C]dalbavancin level per gram of tissue at 20 mg/kg, iv after 12 hrs by autoradioluminography; assay type: ADME, organism-based, Oryctolagus cuniculus; design: dose 20 mg/kg, route intravenous; conditions: in vivo
Blood [37] = assay: Drug level in New Zealand white rabbit blood assessed as [14C]dalbavancin level per gram of tissue at 20 mg/kg, iv after 168 hrs by autoradioluminography; assay type: ADME, organism-based, Oryctolagus cuniculus; design: dose 20 mg/kg, route intravenous; conditions: in vivo
[38] = Drug level in New Zealand white rabbit bone marrow assessed as [14C]dalbavancin level per gram of tissue at 20 mg/kg, iv after 72 hrs by liquid scintillation counting method; assay type: ADME, organism-based, Oryctolagus cuniculus; design: dose 20 mg/kg, route intravenous; conditions: in vivo

`CN[C@H]1C(=O)N[C@@H]2Cc3ccc(cc3)Oc3cc4cc(c3O[C@@H]3O[C@H](C(=O)O)[C@@H](O)[C@H](O)[C@H]3NC(=O)CCCCCCCCC(C)C)Oc3ccc(cc3Cl)[C@@H](O)[C@@H]3NC(=O)[C@H](NC(=O)[C@@H]4NC(=O)[C@@H](NC2=O)c2cc(cc(O)c2Cl)Oc2cc1ccc2O)c1ccc(O)c(c1)-c1c(O[C@H]2O[C@H](CO)[C@@H](O)[C@H](O)[C@@H]2O)cc(O)cc1[C@@H](C(=O)NCCCN(C)C)NC3=O` [DALBAVANCIN] showed a Drug uptake [1] of 8.04 µg/g, a Drug uptake [2] of 10.3 µg/g and a Drug uptake [3] of 8.64 µg/g. The Drug uptake [4] was 18.9 µg, the Drug uptake [5] was 11.7 µg/g and the Drug uptake [6] was 8.42 µg/g. It also gave a Drug uptake [7] of 8.04 µg, a Drug uptake [8] of 0.99 µg/g and a Cp (Oryctolagus cuniculus [9]) of 0.94 µg. It also gave a Drug uptake [10] of 0.75 µg/g, a Drug uptake [11] of 30.3 µg/g and a Drug uptake [12] of 9.52 µg/g. The Drug uptake [13] was 0.08 µg/g, the Drug uptake [14] was 0.67 µg and the Drug uptake [15] was 11.35 µg. The Drug uptake (Blood [16]) was 5.02 µg/g, the Drug uptake [17] was 0.86 µg/g and the Drug uptake (Blood [18]) was 3.08 µg/g. It also gave a Drug uptake [19] of 2.66 µg/g, a Drug uptake [20] of 2.67 µg and a Drug uptake [21] of 0.05 µg/g. It also gave a Drug uptake [22] of 0.6 µg/g, a Drug uptake [23] of 7.28 µg and a Drug uptake (Blood [24]) of 1.5 µg/g. It also gave an MIC90 (Staphylococcus) of no more than 0.06 µg/mL, a Drug uptake [25] of 3.68 µg/g and a Drug uptake [26] of 5.18 µg. The Drug uptake [27] was 4.56 µg, the Drug uptake [28] was 1.56 µg/g and the Drug uptake [29] was 8 %ID. For the same molecule, the Drug uptake [30] was 21.4 µg/g, the Drug uptake [31] was 0.8 µg/g and the Drug uptake [32] was 29.9 µg/g. For the same molecule, the Cp (Oryctolagus cuniculus [33]) was 4.5 µg, the Drug uptake [34] was 0.24 µg/g and the Drug uptake [35] was 18.7 µg/g. It also gave a Drug uptake [36] of 19.19 µg, a Drug uptake (Blood [37]) of 5.33 µg/g and a Drug uptake [38] of 12.7 µg/g.
